Laboratory results reported in ChEMBL document CHEMBL1142442, “Synthesis of chimeric tetrapeptide-linked cholic acid derivatives: impending synergistic agents” (Bioorg Med Chem Lett, 2008).
Converted amounts (≈) assume the structure as drawn. Where a SMILES comes first, the peptide text is derived from it. The star is where a group is joined. Boc = CC(C)(C)OC(=O)*; OBn = c1ccc(CO*)cc1

Key:
Candida albicans [1] = test: Antifungal activity at Candida albicans; format: functional
Cryptococcus neoformans = test: Antifungal activity at Cryptococcus neoformans; format: functional
Benjaminiella poitrasii = test: Antifungal activity at Benjaminiella poitrasii; format: functional
Yarrowia lipolytica = test: Antifungal activity at Yarrowia lipolytica; format: functional
Fusarium oxysporum = test: Antifungal activity at Fusarium oxysporum; format: functional
Escherichia coli [2] = test: Antibacterial activity at Escherichia coli; format: functional
Staphylococcus aureus = test: Antibacterial activity at Staphylococcus aureus; format: functional
Candida albicans [3] = test: Antifungal activity at Candida albicans assessed as concentration required to lower the MIC of fluconazole from 32 to 1 ug/mL after 48 hrs; format: functional
Escherichia coli [4] = test: Antibacterial activity at Escherichia coli assessed as concentration required to lower the MIC of erythromycin from 64 to 1 ug/mL after 24 hrs; format: functional
MCF7 [5] = test: Antiproliferative activity against human MCF7 cells by MTT assay; format: functional, cell-based
HEK293 [6] = test: Antiproliferative activity against HEK293 cells by MTT assay; format: cell-based; conditions: Homo sapiens
MCF7 [7] = test: Antiproliferative activity against human MCF7 cells at upto 80 uM by MTT assay; format: functional, cell-based
HEK293 [8] = test: Antiproliferative activity against HEK293 cells at upto 80 uM by MTT assay; format: cell-based; conditions: human

Compound | MIC (Candida albicans [1]) [mg/L] | MIC (Cryptococcus neoformans) [mg/L] | MIC (Benjaminiella poitrasii) [mg/L] | MIC (Yarrowia lipolytica) [mg/L] | MIC (Fusarium oxysporum) [mg/L] | MIC (Escherichia coli [2]) [mg/L] | MIC (Staphylococcus aureus) [mg/L] | MIC (Candida albicans [3]) [mg/L] | MIC (Escherichia coli [4]) [mg/L] | IC50 (MCF7 [5]) [µM] | IC50 (HEK293 [6]) [µM] | Activity (MCF7 [7]) | Activity (HEK293 [8])
CC(=O)OCCC[C@@H](C)[C@H]1CC[C@H]2[C@@H]3[C@H](OC(C)=O)C[C@@H]4C[C@@H](NC(=O)CNC(=O)CNC(=O)CNC(=O)CN)CC[C@]4(C)[C@H]3C[C@H](O)[C@]12C | 64 (≈ 90.7 µM) | > 128 | 16 (≈ 22.7 µM) | > 128 | 32 (≈ 45.3 µM) | > 128 | 64 (≈ 90.7 µM) | 6 | 8 | 150 | 800 | Non-toxic | Non-toxic
CC(C)(C)OC(=O)NCCC(=O)NCCC(=O)NCCC(=O)NCCC(=O)O | > 128 |  |  |  |  | 64 (≈ 159 µM) |  | 64 | > 128 |  |  |  | 
C[C@H](CCC(=O)O)[C@H]1CC[C@H]2[C@@H]3[C@H](O)C[C@@H]4C[C@H](O)CC[C@]4(C)[C@H]3C[C@H](O)[C@]12C [CHOLIC ACID] | > 128 | > 128 | 128 (≈ 313 µM) | > 128 | > 128 | > 128 | > 128 | 64 | 64 | 50 | > 1000 |  | 
C[C@H](CCCO)[C@H]1CC[C@H]2[C@@H]3[C@H](O)C[C@@H]4C[C@@H](NC(=O)CCNC(=O)CCNC(=O)CCNC(=O)CCN)CC[C@]4(C)[C@H]3C[C@H](O)[C@]12C | 64 (≈ 94.4 µM) | > 128 | 64 (≈ 94.4 µM) | > 128 | > 128 | 32 (≈ 47.2 µM) | > 128 | 6 | 8 | > 1000 | 800 | Non-toxic | Non-toxic
C[C@@H]1[C@H](O)[C@@H](C)/C=C/C=C/C=C/C=C/C=C/C=C/C=C/[C@H](O[C@@H]2O[C@H](C)[C@@H](O)[C@H](N)[C@@H]2O)C[C@@H]2O[C@](O)(C[C@@H](O)C[C@@H](O)[C@H](O)CC[C@@H](O)C[C@@H](O)CC(=O)O[C@H]1C)C[C@H](O)[C@H]2C(=O)O [AMPHOTERICIN B] | 2 (≈ 2.16 µM) | 16 (≈ 17.3 µM) | 16 (≈ 17.3 µM) | 16 (≈ 17.3 µM) | 16 (≈ 17.3 µM) |  |  |  |  |  |  |  | 
OC(Cn1cncn1)(Cn1cncn1)c1ccc(F)cc1F [FLUCONAZOLE] | 32 (≈ 104 µM) | 32 (≈ 104 µM) | 32 (≈ 104 µM) | 64 (≈ 209 µM) | 8 (≈ 26.1 µM) |  |  |  |  |  |  |  | 
CC(C)(C)OC(=O)NCCC(=O)NCCC(=O)NCCC(=O)NCCC(=O)OCc1ccccc1 | > 128 |  |  |  |  | 128 (≈ 260 µM) |  | 128 | 64 |  |  |  | 
COC(=O)CC[C@@H](C)[C@H]1CC[C@H]2[C@@H]3[C@H](O)C[C@@H]4C[C@@H](NC(=O)CNC(=O)CNC(=O)CNC(=O)CN)CC[C@]4(C)[C@H]3C[C@H](O)[C@]12C | 32 (≈ 49.2 µM) | > 128 | 64 (≈ 98.5 µM) | > 128 | 128 (≈ 197 µM) | > 128 | 96 (≈ 148 µM) | 6 | 12 | 500 | 80 | Non-toxic | Non-toxic
COC(=O)CC[C@@H](C)[C@H]1CC[C@H]2[C@@H]3[C@H](O)C[C@@H]4C[C@@H](NC(=O)CCNC(=O)CCNC(=O)CCNC(=O)CCN)CC[C@]4(C)[C@H]3C[C@H](O)[C@]12C | 128 (≈ 181 µM) | > 128 | 24 (≈ 34 µM) | > 128 | 32 (≈ 45.3 µM) | 96 (≈ 136 µM) | 64 (≈ 90.7 µM) | 3 | 8 | 600 | 700 | Non-toxic | Non-toxic
CC(C)(C)OC(=O)NCC(=O)NCC(=O)NCC(=O)NCC(=O)O (Boc-GGGG-OH) | > 128 |  |  |  |  | 64 (≈ 185 µM) |  | 64 | 128 |  |  |  | 
CC(=O)OCCC[C@@H](C)[C@H]1CC[C@H]2[C@@H]3[C@H](OC(C)=O)C[C@@H]4C[C@@H](NC(=O)CNC(=O)CNC(=O)CNC(=O)CNC(=O)OC(C)(C)C)CC[C@]4(C)[C@H]3C[C@H](O)[C@]12C | 64 (≈ 79.4 µM) | > 128 | 32 (≈ 39.7 µM) | > 128 | 64 (≈ 79.4 µM) | 64 (≈ 79.4 µM) | > 128 | 12 | 24 | 500 | 200 | Non-toxic | Non-toxic
NCCC(=O)NCCC(=O)NCCC(=O)NCCC(=O)O | > 128 |  |  |  |  | 128 (≈ 423 µM) |  | 128 | > 128 |  |  |  | 
CC(=O)OCCC[C@@H](C)[C@H]1CC[C@H]2[C@@H]3[C@H](OC(C)=O)C[C@@H]4C[C@@H](NC(=O)CCNC(=O)CCNC(=O)CCNC(=O)CCNC(=O)OC(C)(C)C)CC[C@]4(C)[C@H]3C[C@H](O)[C@]12C | 32 (≈ 37.1 µM) | > 128 | 64 (≈ 74.2 µM) | 96 (≈ 111 µM) | > 128 | > 128 | 32 (≈ 37.1 µM) | 8 | 10 | 150 | 80 | Non-toxic | Non-toxic
CC(C)(C)OC(=O)NCC(=O)NCC(=O)NCC(=O)NCC(=O)OCc1ccccc1 (Boc-GGGG-OBn) | > 128 |  |  |  |  | 128 (≈ 293 µM) |  | 128 | 128 |  |  |  | 
C[C@H](CCC(=O)O)[C@H]1CC[C@H]2[C@@H]3[C@H](O)C[C@@H]4C[C@@H](NC(=O)CCNC(=O)CCNC(=O)CCNC(=O)CCN)CC[C@]4(C)[C@H]3C[C@H](O)[C@]12C | 32 (≈ 46.2 µM) | > 128 | 24 (≈ 34.7 µM) | > 128 | 64 (≈ 92.5 µM) | 32 (≈ 46.2 µM) | > 128 | 1 | 4 | 200 | > 1000 | Non-toxic | Non-toxic
CN(C)[C@@H]1C(O)=C(C(N)=O)C(=O)[C@@]2(O)C(O)=C3C(=O)c4c(O)cccc4[C@@](C)(O)[C@H]3C[C@@H]12 [TETRACYCLINE] |  |  |  |  |  | 8 (≈ 18 µM) | 16 (≈ 36 µM) |  |  |  |  |  | 
COC(=O)CC[C@@H](C)[C@H]1CC[C@H]2[C@@H]3[C@H](O)C[C@@H]4C[C@@H](NC(=O)CCNC(=O)CCNC(=O)CCNC(=O)CCNC(=O)OC(C)(C)C)CC[C@]4(C)[C@H]3C[C@H](O)[C@]12C | 32 (≈ 39.7 µM) | > 128 | 16 (≈ 19.8 µM) | 96 (≈ 119 µM) | 64 (≈ 79.4 µM) | > 128 | > 128 | 6 | 16 | 100 | > 1000 | Non-toxic | Non-toxic
COC(=O)CC[C@@H](C)[C@H]1CC[C@H]2[C@@H]3[C@H](O)C[C@@H]4C[C@@H](NC(=O)CNC(=O)CNC(=O)CNC(=O)CNC(=O)OC(C)(C)C)CC[C@]4(C)[C@H]3C[C@H](O)[C@]12C | 16 (≈ 21.3 µM) | > 128 | 64 (≈ 85.3 µM) | > 128 | 64 (≈ 85.3 µM) | 96 (≈ 128 µM) | 32 (≈ 42.7 µM) | 8 | 24 | 300 | 600 | Non-toxic | Non-toxic
NCC(=O)NCC(=O)NCC(=O)NCC(=O)O (H-GGGG-OH) | 128 (≈ 520 µM) |  |  |  |  | > 128 |  | > 128 | 64 |  |  |  | 
C[C@H](CCCO)[C@H]1CC[C@H]2[C@@H]3[C@H](O)C[C@@H]4C[C@@H](NC(=O)CCNC(=O)CCNC(=O)CCNC(=O)CCNC(=O)OC(C)(C)C)CC[C@]4(C)[C@H]3C[C@H](O)[C@]12C | 128 (≈ 165 µM) | > 128 | > 128 | > 128 | 64 (≈ 82.3 µM) | > 128 | > 128 | 12 | 20 | > 1000 | 800 | Non-toxic | Non-toxic
CC(CCC(=O)O)C1CCC2C3C(O)CC4CC(NC(=O)CCNC(=O)CCNC(=O)CCNC(=O)CCNC(=O)OC(C)(C)C)CCC4(C)C3CC(O)C12C (configuration not stated) | 32 (≈ 40.4 µM) | > 128 | 48 (≈ 60.6 µM) | > 128 | 64 (≈ 80.8 µM) | > 128 | > 128 | 12 | 16 | > 1000 | > 1000 | Non-toxic | Non-toxic
CC[C@H]1OC(=O)[C@H](C)[C@@H](O[C@H]2C[C@@](C)(OC)[C@@H](O)[C@H](C)O2)[C@H](C)[C@@H](O[C@@H]2O[C@H](C)C[C@H](N(C)C)[C@H]2O)[C@](C)(O)C[C@@H](C)C(=O)[C@H](C)[C@@H](O)[C@]1(C)O [ERYTHROMYCIN] |  |  |  |  |  | 64 (≈ 87.2 µM) | 32 (≈ 43.6 µM) |  |  |  |  |  | 
